Test results from US10464911B2, “1,3,4-oxadiazole sulfamide derivative compounds as histone deacetylase 6 inhibitor, and the pharmaceutical composition comprising the same” (Chong Kun Dang Pharmaceutical Corp., priority 2015, dated 2019).

Legend:
human recombinant HDAC6 = human recombinant HDAC6 (Homo sapiens (Human), UniProt Q9UBN7); assay: HDAC6 enzyme activity inhibition assay (HDAC Fluorimetric Drug Discovery Kit); type: biochemical; conditions: for HDAC6 selectivity (fold): HDAC6 versus HDAC1; for IC50: human recombinant HDAC6, same protocol as HDAC1 test
Description: (§1) In order to examine the HDAC6 selectivity of the compounds of formula I of the present invention by HDAC1 and HDAC6 enzymatic activity inhibition assays, an experiment was performed using a conventional substance as a control.
(§2) HDAC enzyme activity was measured using a HDAC Fluorimetric Drug Discovery Kit (BML-AK511, 516, Enzo Life Science). For the HDAC1 enzyme activity test, human recombinant HDAC1 (BML-SE456) was used as an enzyme source, and Fluor de Lys®-“SIRT1 (BNL-KI177) was used as a substrate. A 5-fold dilution of the compound was seeded into a 96-well plate, and then 0.3 μg of the enzyme and 10 μM of the substrate were added to each well of the plate and allowed to react at 30 for 60 minutes. Then, Fluor de Lys®-Developer II (BML-KI176) was added thereto and allowed to react for 30 minutes, after which the fluorescence value (Ex 360, Em 460) was measured using a multi-plate reader (Flexstation 3, Molecular Device). The HDAC6 enzyme was tested using human recombinant HDAC6 (382180) (Calbiochem) according to the same protocol as the HDAC1 enzyme activity test method. Based on the resulting values, each IC50 value was calculated using GraphPad Prism4.0 program.

human recombinant HDAC1 = human recombinant HDAC1 (Homo sapiens (Human), UniProt Q13547); assay: HDAC1 enzyme activity inhibition assay (HDAC Fluorimetric Drug Discovery Kit); type: biochemical; conditions: human recombinant HDAC1, Fluor de Lys substrate 10 μM, 60 minutes
Description: as §1, §2

Chain of human recombinant HDAC1 (Q13547 whole entry): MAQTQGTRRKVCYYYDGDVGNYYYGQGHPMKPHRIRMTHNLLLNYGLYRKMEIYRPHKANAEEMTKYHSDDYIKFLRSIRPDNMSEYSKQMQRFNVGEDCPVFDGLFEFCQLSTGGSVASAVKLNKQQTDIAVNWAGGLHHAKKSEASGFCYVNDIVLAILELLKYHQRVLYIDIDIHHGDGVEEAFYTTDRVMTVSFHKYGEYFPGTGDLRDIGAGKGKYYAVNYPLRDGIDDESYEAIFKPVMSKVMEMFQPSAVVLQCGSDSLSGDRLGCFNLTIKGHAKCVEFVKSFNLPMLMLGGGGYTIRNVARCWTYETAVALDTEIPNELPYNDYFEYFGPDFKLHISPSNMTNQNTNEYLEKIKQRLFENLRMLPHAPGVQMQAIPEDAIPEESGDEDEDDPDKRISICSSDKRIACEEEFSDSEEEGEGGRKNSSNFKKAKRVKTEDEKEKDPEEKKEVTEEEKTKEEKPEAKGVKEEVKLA
Chain of human recombinant HDAC6 (Q9UBN7 whole entry): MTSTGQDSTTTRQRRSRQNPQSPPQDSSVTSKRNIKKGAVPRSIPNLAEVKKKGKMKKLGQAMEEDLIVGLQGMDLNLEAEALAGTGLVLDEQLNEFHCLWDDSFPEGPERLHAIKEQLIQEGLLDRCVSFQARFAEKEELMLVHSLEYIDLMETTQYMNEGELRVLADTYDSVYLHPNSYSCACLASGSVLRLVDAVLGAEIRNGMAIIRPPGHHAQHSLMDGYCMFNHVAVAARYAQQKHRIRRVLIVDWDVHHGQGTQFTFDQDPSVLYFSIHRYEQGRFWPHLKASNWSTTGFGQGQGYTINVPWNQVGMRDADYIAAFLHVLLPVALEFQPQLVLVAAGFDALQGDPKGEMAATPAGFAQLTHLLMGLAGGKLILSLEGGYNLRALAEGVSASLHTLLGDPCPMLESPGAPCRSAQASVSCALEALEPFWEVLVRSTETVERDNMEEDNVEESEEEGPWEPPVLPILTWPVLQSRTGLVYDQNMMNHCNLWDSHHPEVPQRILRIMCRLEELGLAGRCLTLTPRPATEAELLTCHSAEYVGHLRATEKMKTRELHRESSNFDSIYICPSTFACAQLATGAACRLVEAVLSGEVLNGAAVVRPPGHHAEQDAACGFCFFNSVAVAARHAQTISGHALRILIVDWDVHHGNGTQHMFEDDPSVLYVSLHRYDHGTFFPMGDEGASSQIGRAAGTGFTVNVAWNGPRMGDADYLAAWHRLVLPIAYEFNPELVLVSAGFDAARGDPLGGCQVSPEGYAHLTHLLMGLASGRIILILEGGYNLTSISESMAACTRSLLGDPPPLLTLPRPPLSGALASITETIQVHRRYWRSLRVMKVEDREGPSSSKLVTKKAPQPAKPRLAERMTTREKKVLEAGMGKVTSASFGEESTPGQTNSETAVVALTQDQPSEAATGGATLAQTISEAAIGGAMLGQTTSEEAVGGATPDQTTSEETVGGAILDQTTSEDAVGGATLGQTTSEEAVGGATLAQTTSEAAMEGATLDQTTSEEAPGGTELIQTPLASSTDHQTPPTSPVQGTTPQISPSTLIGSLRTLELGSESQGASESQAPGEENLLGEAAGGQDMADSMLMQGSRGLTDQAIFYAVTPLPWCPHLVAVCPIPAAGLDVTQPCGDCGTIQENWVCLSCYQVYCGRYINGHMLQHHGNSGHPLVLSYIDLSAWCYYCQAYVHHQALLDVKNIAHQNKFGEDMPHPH

Row | SMILES | HDAC6 selectivity (fold) (human recombinant HDAC6) | IC50 (human recombinant HDAC6) | IC50 (human recombinant HDAC1)
1 | Cl.O=S(=O)(N1CCNCC1)N(Cc1ccc(-c2nnc(C(F)(F)F)o2)cc1F)c1ccccc1 [Compound 11293, N-(2-fluoro-4-(5-(trifluoromethyl)-1,3,4-oxadiazol-2-yl)benzyl)-N-phenylpiperazine-1-sulfonamide Hydrochloride] | 1156 fold | 66 nM | 76000 nM
2 | Cl.O=S(=O)(N1CCNCC1)N(Cc1ccc(-c2nnc(C(F)(F)F)o2)cc1F)c1cccc(F)c1 [Compound 11309, N-(2-fluoro-4-(5-(trifluoromethyl)-1,3,4-oxadiazol-2-yl)benzyl)-N-(3-fluorophenyl)piperazine-1-sulfonamide Hydrochloride] | 710 fold | 58 nM | 41500 nM
3 | O=S1(=O)CCN(S(=O)(=O)N(Cc2ccc(-c3nnc(C(F)F)o3)cn2)c2ccc(F)c(Cl)c2)CC1 [Compound 11498, N-(3-chloro-4-fluorophenyl)-N-((5-(5-(difluoromethyl)-1,3,4-oxadiazol-2-yl)pyridin-2-yl)methyl)thiomorpholine-4-sulfonamide 1,1-dioxide] | 2141 fold | 23 nM | 49200 nM
4 | O=S(=O)(N1CCN(C2COC2)CC1)N(Cc1ccc(-c2nnc(C(F)(F)F)o2)cc1F)c1ccccc1 [Compound 11527, N-(2-fluoro-4-(5-(trifluoromethyl)-1,3,4-oxadiazol-2-yl)benzyl)-4-(oxetan-3-yl)-N-phenylpiperazine-1-sulfonamide] | 627 fold | 76 nM | 47700 nM
5 | O=S(=O)(N1CCN(C2COC2)CC1)N(Cc1ccc(-c2nnc(C(F)(F)F)o2)cn1)c1ccccc1 [Compound 11528, 4-(oxetan-3-yl)-N-phenyl-N-((5-(5-(trifluoromethyl)-1,3,4-oxadiazol-2-yl)pyridin-2-yl)methyl)piperazine-1-sulfonamide] | 527 fold | 79 nM | 41600 nM
6 | O=S(=O)(N1CCN(C2COC2)CC1)N(Cc1ccc(-c2nnc(C(F)F)o2)cc1)c1ccc(F)c(Cl)c1 [Compound 11653, N-(3-chloro-4-fluorophenyl)-N-(4-(5-(difluoromethyl)-1,3,4-oxadiazol-2-yl)benzyl)-4-(oxetan-3-yl)piperazine-1-sulfonamide] | 1214 fold | 43 nM | 52400 nM
7 | CN1CCN(S(=O)(=O)N(Cc2ccc(-c3nnc(C(F)F)o3)cc2)c2ccc(F)c(Cl)c2)CC1 [Compound 11654, N-(3-chloro-4-fluorophenyl)-N-(4-(5-(difluoromethyl)-1,3,4-oxadiazol-2-yl)benzyl)-4-methylpiperazine-1-sulfonamide] | 1996 fold | 36 nM | 71500 nM
8 | CC(=O)N1[C@H](C)CN(S(=O)(=O)N(Cc2ccc(-c3nnc(C(F)F)o3)cn2)c2ccccc2)C[C@@H]1C [Compound 11659, (3S,5R)-4-acetyl-N-((5-(5-(difluoromethyl)-1,3,4-oxadiazol-2-yl)pyridin-2-yl)methyl)-3,5-dimethyl-N-phenylpiperazine-1-sulfonamide] | 2753 fold | 26 nM | 72400 nM
9 | CC(=O)N1[C@H](C)CN(S(=O)(=O)N(Cc2ccc(-c3nnc(C(F)F)o3)cc2)c2cccnc2)C[C@@H]1C [Compound 11660, (3S,5R)-4-acetyl-N-(4-(5-(difluoromethyl)-1,3,4-oxadiazol-2-yl)benzyl)-3,5-dimethyl-N-(pyridin-3-yl)piperazine-1-sulfonamide] | 1206 fold | 63 nM | 76500 nM
10 | CCN1[C@H](C)CN(S(=O)(=O)N(Cc2ccc(-c3nnc(C(F)F)o3)cn2)c2ccccc2)C[C@@H]1C [Compound 11661, (3S,5R)—N-((5-(5-(difluoromethyl)-1,3,4-oxadiazol-2-yl)pyridin-2-yl)methyl)-4-ethyl-3,5-dimethyl-N-phenylpiperazine-1-sulfonamide] | 1886 fold | 61 nM | 116000 nM
11 | O=S(=O)(N1CCC2(CC1)CN(C1COC1)C2)N(Cc1ccc(-c2nnc(C(F)F)o2)cc1)c1ccccc1 [Compound 11788, N-(4-(5-(difluoromethyl)-1,3,4-oxadiazol-2-yl)benzyl)-2-(oxetan-3-yl)-N-phenyl-2,7-diazaspiro[3.5]nonane-7-sulfonamide] | 561 fold | 178 nM | –
12 | O=S(=O)(N1CCC2(CC1)CN(C1CCC1)C2)N(Cc1ccc(-c2nnc(C(F)F)o2)cc1)c1ccccc1 [Compound 11789, 2-cyclobutyl-N-(4-(5-(difluoromethyl)-1,3,4-oxadiazol-2-yl)benzyl)-N-phenyl-2,7-diazaspiro[3.5]nonane-7-sulfonamide] | 819 fold | 122 nM | –
13 | Cc1cccc(N(Cc2ccc(-c3nnc(C(F)F)o3)cn2)S(=O)(=O)N2CCN(C)[C@H](C)C2)c1 [Compound 11823, (R)—N-((5-(5-(difluoromethyl)-1,3,4-oxadiazol-2-yl)pyridin-2-yl)methyl)-3,4-dimethyl-N-(m-tolyl)piperazine-1-sulfonamide] | 2083 fold | 48 nM | –
14 | Cc1cccc(N(Cc2ccc(-c3nnc(C(F)F)o3)cn2)S(=O)(=O)N2CCN(C3COC3)[C@H](C)C2)c1 [Compound 11824, (R)—N-((5-(5-(difluoromethyl)-1,3,4-oxadiazol-2-yl)pyridin-2-yl)methyl)-3-methyl-4-(oxetan-3-yl)-N-(m-tolyl)piperazine-1-sulfonamide] | 2000 fold | 50 nM | –
15 | C[C@@H]1CN(S(=O)(=O)N(Cc2ccc(-c3nnc(C(F)F)o3)cn2)c2cccc(Cl)c2)CCN1C [Compound 11825, (R)—N-(3-chlorophenyl)-N-((5-(5-(difluoromethyl)-1,3,4-oxadiazol-2-yl)pyridin-2-yl)methyl)-3,4-dimethylpiperazine-1-sulfonamide] | 2777 fold | 36 nM | –
16 | C[C@@H]1CN(S(=O)(=O)N(Cc2ccc(-c3nnc(C(F)F)o3)cn2)c2cccc(Cl)c2)CCN1C1COC1 [Compound 11826, (R)—N-(3-chlorophenyl)-N-((5-(5-(difluoromethyl)-1,3,4-oxadiazol-2-yl)pyridin-2-yl)methyl)-3-methyl-4-(oxetan-3-yl)piperazine-1-sulfonamide] | 2439 fold | 41 nM | –
17 | Cc1cccc(N(Cc2ccc(-c3nnc(C(F)F)o3)cn2)S(=O)(=O)N2CCN(C)[C@@H](C)C2)c1 [Compound 11827, (S)—N-((5-(5-(difluoromethyl)-1,3,4-oxadiazol-2-yl)pyridin-2-yl)methyl)-3,4-dimethyl-N-(m-tolyl)piperazine-1-sulfonamide] | 1923 fold | 52 nM | –
18 | Cc1cccc(N(Cc2ccc(-c3nnc(C(F)F)o3)cn2)S(=O)(=O)N2CCN(C3COC3)[C@@H](C)C2)c1 [Compound 11828, (S)—N-((5-(5-(difluoromethyl)-1,3,4-oxadiazol-2-yl)pyridin-2-yl)methyl)-3-methyl-4-(oxetan-3-yl)-N-(m-tolyl)piperazine-1-sulfonamide] | 2380 fold | 42 nM | –
19 | C[C@H]1CN(S(=O)(=O)N(Cc2ccc(-c3nnc(C(F)F)o3)cn2)c2cccc(Cl)c2)CCN1C [Compound 11829, (S)—N-(3-chlorophenyl)-N-((5-(5-(difluoromethyl)-1,3,4-oxadiazol-2-yl)pyridin-2-yl)methyl)-3,4-dimethylpiperazine-1-sulfonamide] | 3448 fold | 29 nM | –
20 | C[C@H]1CN(S(=O)(=O)N(Cc2ccc(-c3nnc(C(F)F)o3)cn2)c2cccc(Cl)c2)CCN1C1COC1 [Compound 11830, (S)—N-(3-chlorophenyl)-N-((5-(5-(difluoromethyl)-1,3,4-oxadiazol-2-yl)pyridin-2-yl)methyl)-3-methyl-4-(oxetan-3-yl)piperazine-1-sulfonamide] | 5882 fold | 17 nM | –
21 | O=S(=O)(N1CCN(C2CCC2)CC1)N(Cc1ccc(-c2nnc(C(F)F)o2)cn1)c1cccc(Cl)c1 [Compound 11831, N-(3-chlorophenyl)-4-cyclobutyl-N-((5-(5-(difluoromethyl)-1,3,4-oxadiazol-2-yl)pyridin-2-yl)methyl)piperazine-1-sulfonamide] | 2777 fold | 36 nM | –
22 | O=S(=O)(N1CCN(C2COC2)CC1)N(Cc1ccc(-c2nnc(C(F)F)o2)cn1)c1cccc(Cl)c1 [Compound 11832, N-(3-chlorophenyl)-N-((5-(5-(difluoromethyl)-1,3,4-oxadiazol-2-yl)pyridin-2-yl)methyl)-4-(oxetan-3-yl)piperazine-1-sulfonamide] | 4761 fold | 21 nM | –
23 | Cc1cccc(N(Cc2ccc(-c3nnc(C(F)F)o3)cn2)S(=O)(=O)N2CCN(C3COC3)CC2)c1 [Compound 11833, N-((5-(5-(difluoromethyl)-1,3,4-oxadiazol-2-yl)pyridin-2-yl)methyl)-4-(oxetan-3-yl)-N-(m-tolyl)piperazine-1-sulfonamide] | 2040 fold | 49 nM | –
